Laboratory results as given in US20160137639A1, “TRIAZOLE-ISOXAZOLE COMPOUND AND MEDICAL USE THEREOF” (JAPAN TOBACCO INC., priority 2012, published 2016).
Where two headings read alike, the source gives them in different places.

Assays:
mouse RORγ = molecular target: T1, mouse RORγ (Mus musculus, UniProt P51450); assay: Luciferase reporter gene assay of inhibitory effect against RORγ transcriptional activity (GAL4-mRORγ plasmid in CHO cells); type: cell-based
T1 construct: mouse, NM_011281.2 and from Ile251 to Lys516; expressed in transfected cells; host or cells: CHO cells (transient co-transfection with pG5-Luc reporter)
T1 sequence (P51450 251-516): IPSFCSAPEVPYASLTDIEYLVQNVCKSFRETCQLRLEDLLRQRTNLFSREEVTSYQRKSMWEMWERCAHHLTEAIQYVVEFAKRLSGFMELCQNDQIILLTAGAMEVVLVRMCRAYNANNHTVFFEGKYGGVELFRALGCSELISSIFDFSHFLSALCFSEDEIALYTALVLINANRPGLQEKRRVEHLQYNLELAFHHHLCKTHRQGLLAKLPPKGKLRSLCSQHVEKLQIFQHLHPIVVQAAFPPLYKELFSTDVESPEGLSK
Method in brief: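 Readout is intracellular luciferase after 2-day compound exposure (8 concentrations, 0.1% DMSO) in CHO cells expressing GAL4 fused to mouse RORγ LBD residues Ile251–Lys516 plus pG5-Luc reporter. EC50 fitted from %-of-control; points showing resazurin-detected cytotoxicity dropped.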

human RORγ = molecular target: T2, human RORγ (Homo sapiens, UniProt P51449); assay: Luciferase reporter gene assay of inhibitory effect against RORγ transcriptional activity (GAL4-hRORγ plasmid in CHO cells); type: cell-based
T2 construct: human, NM_005060.3 and from Ser253 to Lys518; expressed in transfected cells; host or cells: CHO cells (transient co-transfection with pG5-Luc reporter)
T2 sequence (P51449 253-518): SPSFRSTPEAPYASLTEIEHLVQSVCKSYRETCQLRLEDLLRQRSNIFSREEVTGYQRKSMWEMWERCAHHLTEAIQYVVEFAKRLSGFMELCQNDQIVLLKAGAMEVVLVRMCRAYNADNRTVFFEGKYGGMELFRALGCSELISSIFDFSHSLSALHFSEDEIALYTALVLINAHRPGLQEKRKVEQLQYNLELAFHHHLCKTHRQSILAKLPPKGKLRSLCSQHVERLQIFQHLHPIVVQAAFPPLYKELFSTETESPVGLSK

| Compound | EC50 (mouse RORγ; read-out: LUC EC50 (μM) mRORg) | EC50 (human RORγ; read-out: LUC EC50 (μM) hRORg) | EC50 (mouse RORγ; read-out: LUC EC50 mRORg) | EC50 (human RORγ; read-out: LUC EC50 hRORg) |
| --- | --- | --- | --- | --- |
| Cc1ccc(NC(=O)C[C@H](CCC(=O)O)c2noc(-c3cc(CC(C)(C)C)on3)c2C2CC2)c(F)c1 [Example E-65] | < 3 µM | < 3 µM | – | – |
| Cc1ccc(NC(=O)[C@H]2CN(S(=O)(=O)C(F)(F)F)C[C@@H]2c2nnc(CCCC(C)(C)C)n2C2CC2)c(C)c1 (racemic) [Example F-527] | – | – | < 3 µM | < 3 µM |
| C=CCC(CC(=O)Nc1cccc(Cl)c1C)c1nnc(CCC2CCCCC2)n1C1CC1 (racemic) [Example F-244] | < 3 µM | < 3 µM | – | – |
| Cc1ccc(NC(=O)CCc2noc(C(F)(F)c3cc(C(C)(C)C)on3)c2C2CC2)c(Cl)c1 [Example F-745] | – | – | < 3 µM | < 3 µM |
| CCC(=O)N1C[C@H](C(=O)Nc2ccc(C)cc2C)[C@@H](c2nnc(CCCC(C)(C)C)n2C2CC2)C1 (racemic) [Example F-400] | < 3 µM | < 3 µM | – | – |
| Cc1ccc(NC(=O)C[C@H](CCC(=O)O)c2noc(-c3ncc(CC(C)C)o3)c2C2CC2)c(Cl)c1 [Example E-18] | < 3 µM | < 3 µM | – | – |
| Cc1ccc(O)cc1NC(=O)CCc1nnc(CCC(C)C)n1C1CC1 [Example F-192] | > 3 µM | > 3 µM | – | – |
| Cc1ccc(NC(=O)C[C@H](CC(C)(C)O)c2nnc([C@H]3C[C@@H](CC(C)C)C3)n2C2CC2)c(C)c1 [Example F-599] | – | – | < 3 µM | < 3 µM |
| COc1cc(C)ccc1CNC(=O)[C@H]1CCN(C(C)=O)[C@@H]1c1nnc(CCC2CCCCC2)n1C1CC1 [Example F-228] | < 3 µM | < 3 µM | – | – |
| CC(=O)N1C[C@H](C(=O)Nc2ccc(C)cc2C)[C@@H](c2nnc(C3CN(C(=O)OC(C)(C)C)C3)n2C2CC2)C1 (racemic) [Example F-416] | > 3 µM | > 3 µM | – | – |
| Cc1ccc(NC(=O)C[C@H](CC(F)(F)F)c2nnc([C@H]3C[C@@H](CC(C)C)C3)n2C2CC2)c(C)c1 [Example F-568] | – | – | < 3 µM | < 3 µM |
| Cc1c(Cl)cccc1NC(=O)CC(CCO)c1nnc(CCC(C)C)n1C1CC1 (racemic) [Example F-175] | < 3 µM | < 3 µM | – | – |
| CCC1(CC)CC(c2nnc(CCC(=O)Nc3ccc(C)cc3C)n2C2CC2)C1 [Example F-451] | < 3 µM | < 3 µM | – | – |
| Cc1ccc(NC(=O)C[C@H](CCC(=O)O)c2noc(-c3cc(CC(C)C)no3)c2C2CC2)c(Cl)c1 [Example E-04, (S)-5-(2-chloro-4-methyl-phenylcarbamoyl)-4-(4-cyclopropyl-3′-isobutyl-[5,5′]biisoxazolyl-3-yl)-pentanoic acid] | < 3 µM | < 3 µM | – | – |
| CCCc1ccccc1NC(=O)CCc1nnc(CCC(C)C)n1C1CC1 [Example F-77] | > 3 µM | > 3 µM | – | – |
| Cc1ccc(NC(=O)C[C@H](Cc2noc(=O)[nH]2)c2noc([C@H]3C[C@@H](CC(C)C)C3)c2C2CC2)c(C)c1 [Example F-640] | – | – | < 3 µM | < 3 µM |
| Cc1ccc(NC(=O)[C@H]2CC(F)(F)C[C@@H]2c2nnc([C@H]3C[C@@H](CC(C)C)C3)n2C2CC2)c(C)c1 [Example F-571] | – | – | < 3 µM | < 3 µM |
| Cc1ccc(NC(=O)CC(CCO)c2nnc(C(F)(F)CCC(C)(C)C)n2C2CC2)c(C)c1 (racemic) [Example F-366] | < 3 µM | < 3 µM | – | – |
| Cc1c(O)cccc1CNC(=O)CCc1nnc(CCC(C)C)n1C1CC1 [Example F-133] | > 3 µM | > 3 µM | – | – |
| Cc1ccc(NC(=O)C[C@H](CCC(=O)O)c2noc([C@H]3C[C@@H](CC(C)(C)CO)C3)c2C2CC2)c(Cl)c1 [Example F-716] | – | – | < 3 µM | < 3 µM |
| Cc1ccc(NC(=O)[C@@H]2CC(F)(F)C[C@H]2c2nnc([C@H]3C[C@@H](CC(C)C)C3)n2C2CC2)c(C)c1 [Example F-572] | – | – | < 3 µM | < 3 µM |
| CC(=O)N1C[C@H](C(=O)Nc2ccc(C)cc2C)[C@@H](c2nnc(CCC3CCCCC3)n2C2CC2)C1 (racemic) [Example F-191] | < 3 µM | < 3 µM | – | – |
| CCn1c(C2Cc3ccccc3C2)nnc1[C@@H]1C[C@@H]1C(=O)Nc1cccc2ccccc12 (racemic) [Example F-27] | < 3 µM | > 3 µM | – | – |
| Cc1c(Cl)cccc1NC(=O)CCc1nnc(CCCC(C)(C)C(=O)O)n1C1CC1 [Example F-232] | > 3 µM | > 3 µM | – | – |
| Cc1ccc(C(N)=O)cc1NC(=O)CCc1nnc(CCC(C)C)n1C1CC1 [Example F-154] | > 3 µM | > 3 µM | – | – |
